Reference: US8568968B2, “EGFR polymorphisms predict gender-related treatment” (University of Southern California, priority 2009, dated 2013)
Values joined by “and” are separate entries in the source; they are usually repeats but may differ in a detail not shown here. Equal values may be shown once.

Test system: metastatic colon cancer patients
Test: Overall survival of metastatic colon cancer patients treated with 5-FU-based chemotherapy, by gender and EGFR genotype
Format: in vivo, human
Conditions: for RR (95% CI): relative risk
Excerpt: A total of 318 patients with metastatic colon cancer treated at the University of Southern California/Norris Comprehensive Cancer Center (USC/NCCC) or the Los Angeles County/University of Southern California Medical Center (LAC/USCMC), between 1992 and 2003, were eligible for the present study. This population included only metastatic or recurrent colon cancer patients. All patients in this study signed informed consents and enrolled in protocols designed to study the molecular determinants of colon cancer. These protocols permitted blood collection (USC protocol OS-99-10) and/or tissue collection (USC protocol 0S-00-15).
All patients were entered and followed in an institutional database. Patient information was collected through database review and retrospective chart review when additional patient information was necessary. A large number of the patients (69%) were initially treated at an outside institution until, because of failure to respond to prior treatment, they were referred to USC/NCCC or LAC/USCMC for subsequent treatments. The end point of this study, OS, was determined by calculating the difference between the date of first treatment at USC/NCCC or LAC/USC and the date of last follow-up appointment or date of death from disease.
All 318 patients were enrolled in at least one chemotherapy clinical trial while being treated at this institution (USC/NCCC or LAC/USCMC). All patients were treated with 5-fluorouracil (5-FU)-based chemotherapy regimens, and response to chemotherapy was not investigated as an end point for this study. This is a heavily pretreated cohort with 20 (6%) patients treated with one line of chemotherapy, 19 (6%) patients treated with two different chemotherapy regimens, 183 (58%) patients treated with three chemotherapy regimens, and 96 (30%) patients treated with four or more chemotherapy regimens. […] All 318 patients received treatment with 5-FU, 298 (94%) patients received treatment with 5-FU/irinotecan (CPT-11), and 279 (88%) patients received treatment with 5-FU/oxaliplatin.
The primary end point of this study is OS. The OS was determined by calculating the difference between the date of first treatment at USC/NCCC or LAC/USC and the date of last follow-up appointment or date of death. Patients who were alive at the last follow-up were censored at that time.
The associations between sex and other demographic and clinical characteristics were examined using contingency tables and the Fisher exact test. The dominant code for HER-1 R497K was used for the association with OS, and patients who carried heterozygous (Arg/Lys) and homozygous mutant genotypes (Lys/Lys) were grouped together. EGFR intron 1 (CA)n repeat polymorphism was categorized into two groups: both alleles with <20 (CA)n (SEQ ID NO: 3) and any alleles with ≧20 (CA)n (SEQ ID NO: 4) as described previously (19). The associations of HER-1 R497K and EGFR intron 1 (CA)n repeat polymorphisms with OS were analyzed individually using Kaplan-Meier plots and the log-rank test. The independent effects of two EGFR polymorphisms on OS were examined in multivariable analysis using Cox proportional hazards model. Interactions between sex and EGFR polymorphisms were examined using stratified models and were tested by comparing corresponding likelihood ratio statistics between the baseline and nested Cox proportional hazards models that included the multiplicative product terms (20).

O=c1[nH]cc(F)c(=O)[nH]1 [5-FU, 5-fluorouracil]
Median survival (95% CI) (female, EGFR intron 1 any (CA)n repeats ≧20): 14.1 mo and 14.1 (12.1-18.3) mo | Median survival (95% CI) (female, EGFR intron 1 both (CA)n repeats <20): 17.6 mo and 17.9 mo and 17.6 (13.7-22.7) mo | Median survival (95% CI) (female, HER-1 R497K Arg/Arg, 5-FU-based chemotherapy regimens): 16.0 (13.5-19.2) mo | Median survival (95% CI) (female, HER-1 R497K Lys allele (Arg/Lys or Lys/Lys)): 14.0 (11.2-17.9) mo | Median survival (95% CI) (female, combined: Arg/Arg and (CA)n <20): 15.7 (11.5-41.4) mo | Median survival (95% CI) (female, combined: Arg/Arg and (CA)n ≧20 or Lys and (CA)n <20): 17.3 (14.0-19.2) mo | Median survival (95% CI) (female, combined: Lys and (CA)n ≧20): 12.2 (7.7-16.7) mo | RR (95% CI) (female, Arg/Arg and (CA)n ≧20 or Lys and (CA)n <20 vs Arg/Arg and (CA)n <20 (reference)): 0.93 (0.56-1.54) | RR (95% CI) (female, Lys allele vs Arg/Arg (reference), Cox model): 1.41 (0.94-2.10) | RR (95% CI) (female, Lys and (CA)n ≧20 vs Arg/Arg and (CA)n <20 (reference)): 1.90 (1.10-3.29) | RR (95% CI) (female, any (CA)n ≧20 vs both <20 (reference)): 1.37 (0.93-2.01) | Median survival (95% CI) (male, EGFR intron 1 any (CA)n repeats ≧20): 13.1 mo and 13.1 (10.7-16.0) mo | Median survival (95% CI) (male, EGFR intron 1 both (CA)n repeats <20): 10.3 mo and 10.4 mo and 10.3 (8.3-15.5) mo | Median survival (95% CI) (male, HER-1 R497K Arg/Arg, 5-FU-based chemotherapy regimens): 10.3 (9.0-13.5) mo | Median survival (95% CI) (male, HER-1 R497K Lys allele (Arg/Lys or Lys/Lys)): 13.7 (10.8-19.1) mo | Median survival (95% CI) (male, combined: Arg/Arg and (CA)n <20): 8.9 (7.3-11.4) mo | Median survival (95% CI) (male, combined: Arg/Arg and (CA)n ≧20 or Lys and (CA)n <20): 13.1 (10.3-17.5) mo | Median survival (95% CI) (male, combined: Lys and (CA)n ≧20): 13.6 (10.7-19.5) mo | RR (95% CI) (male, Arg/Arg and (CA)n ≧20 or Lys and (CA)n <20 vs Arg/Arg and (CA)n <20 (reference)): 0.84 (0.57-1.25) | RR (95% CI) (male, Lys allele vs Arg/Arg (reference), Cox model): 0.64 (0.46-0.89) | RR (95% CI) (male, Lys and (CA)n ≧20 vs Arg/Arg and (CA)n <20 (reference)): 0.62 (0.39-0.97) | RR (95% CI) (male, any (CA)n ≧20 vs both <20 (reference)): 0.92 (0.67-1.28)
